Test results: US11883426B2, “Treatment for methamphetamine cardiovascular disease” (priority 2020, dated 2024)
Structures can show the parent of a compound that is named as a salt.

Legend:
H2S [1] = type: in vivo, mouse
NO [2] = assay: NO metabolite measurements in mouse plasma and skeletal muscle; type: in vivo
skeletal muscle tissue = type: in vivo, mouse
[3] = system: CSE, p-eNOS and total eNOS; assay: Western blot of mouse skeletal muscle; type: in vivo; details: methamphetamine treated mice
Procedure: (§1) 2.4 ‘Binge and crash’ mouse methamphetamine model: Twelve-week-old male WT (C57BL6/J) male mice were used for these experiments. Mice were exposed to methamphetamine according to a known protocol that models binge methamphetamine exposure in humans. C57BL/6 male mice received 0-6 mg/kg methamphetamine (Methamphetamine HCl, Sigma-Aldrich, St. Louis, Mo.) through subcutaneous (s.c.) injection five days in a week for four weeks. Methamphetamine was dissolved in a sterile saline (Sigma-Aldrich) solution (0.9% w/v NaCl). Vehicle treated mice received the same volume of saline at all-time points for four weeks. Briefly, methamphetamine-exposed and saline-control mice were injected subcutaneously with methamphetamine or saline in a volume of 5 ml/kg with an insulin syringe. Alternating sites of injection were used to avoid any possible damage to tissue and possible stress of the animal. The dose of methamphetamine was escalated over the course of the first cycle, which occurs during the first week of injections (days 1-5) followed by three weeks of repeated cycles of meth injections (days 8-12, 15-19, and 22-26). Mice received 4 injections per day, 2 hours apart with doses of meth including 0, 1, 2, 3, 4, 5, and 6 mg/kg subcutaneously. At the end of the 4 weeks, mice were sacrificed by isoflurane overdose, plasma and tissue were harvested.
2.10 Western blot analysis: Mouse skeletal muscle tissues were homogenized in a solution containing 50 mM Tris buffer (pH 7.4), 2 mM EDTA, 5 mM EGTA, 0.1% SDS, a protease inhibitor cocktail (Roche, Indianapolis, Ind.), and phosphatase inhibitor cocktail type I and II (Sigma, Saint Louis, Mo.). Homogenates were centrifuged at 500×g for 15 min and supernatants were collected. Protein concentrations were analyzed using the Bradford protein assay (BIORAD, Hercules, Calif.). […] Chemiluminescent bands were detected and quantified using NIH Image J software.

superoxide = assay: Oxidative stress measurement (DHE staining) in skeletal muscle; type: in vivo, mouse; details: skeletal muscle sections, methamphetamine vs saline
Procedure: as §1, with “The dose of methamphetamine was escalated over the course of the first cycle, which occurs during the first week of injections (days 1-5) followed by three weeks of repeated cycles of meth injections (days 8-12, 15-19, and 22-26). Mice received 4 injections per day, 2 hours apart with doses of meth including 0, 1, 2, 3, 4, 5, and 6 mg/kg subcutaneously. At the end of the 4 weeks, mice were sacrificed by isoflurane overdose, plasma and tissue were harvested.” left out
2.12 Oxidative Stress measurement: Levels of oxidative stress were measured by staining skeletal muscle tissue sections with 5 μM Dihydroethidium (DHE; Sigma-Aldrich, CA USA) and visualized using a NIKON ECLIPSE Ti-E microscope (Nikon Instruments Inc., Melville, N.Y.) for image acquisition. […]

CSE [4] = type: in vivo, mouse; details: skeletal muscle tissues of methamphetamine treated mice
H2S [5] = assay: Sulfide pools in plasma of human methamphetamine users; details: methamphetamine-users vs age matched healthy controls
Procedure: 2.6 Human blood collection: Human subjects were interviewed, and medical record data were collected for analysis of methamphetamine-use. Blood samples were collected from already-established catheterization into 6 mL BD vacutainer tubes with lithium heparin. Samples were transported to the lab within 15 min on ice and were centrifuged at 1500 RCF for 4 min at 4° C.
(§2) . Free sulfide was measured using 50 μl of plasma with MBB; whereas for detection of ALS and BSS, 50 μl of plasma was added separately into two sets of 4 mL BD vacutainer tubes. […]. Following a 30-min incubation on a nutator, the reaction liquid was removed, and the evolved sulfide gas subsequently trapped by adding 500 μl of 100 mM Tris-HCl buffer (pH 9.5, 0.1 mM DTPA) into the BD vacutainer tube and incubated again for 30 min on a nutator mixer. […]. Determination of ALS was made by reacting plasma samples with acidic phosphate buffer alone and subsequent trapping of evolved sulfide. Measurement of BSS was determined by subtracting the acid labile value from the total sulfide protocol containing TCEP reductant treatment under acidic conditions. […]

NO [6] = assay: Total NO in plasma of human methamphetamine users; details: methamphetamine-users vs healthy controls
femoral artery = details: mouse, in vivo
CSE [7] = target: T1, CSE (Homo sapiens, UniProt P32929); assay: CSE enzyme activity in endothelial cells; type: cell-based; set-up: host or cells: HUVEC; details: HUVECs, 100 μM, 30 min, vs PBS control
T1 sequence (P32929 whole entry): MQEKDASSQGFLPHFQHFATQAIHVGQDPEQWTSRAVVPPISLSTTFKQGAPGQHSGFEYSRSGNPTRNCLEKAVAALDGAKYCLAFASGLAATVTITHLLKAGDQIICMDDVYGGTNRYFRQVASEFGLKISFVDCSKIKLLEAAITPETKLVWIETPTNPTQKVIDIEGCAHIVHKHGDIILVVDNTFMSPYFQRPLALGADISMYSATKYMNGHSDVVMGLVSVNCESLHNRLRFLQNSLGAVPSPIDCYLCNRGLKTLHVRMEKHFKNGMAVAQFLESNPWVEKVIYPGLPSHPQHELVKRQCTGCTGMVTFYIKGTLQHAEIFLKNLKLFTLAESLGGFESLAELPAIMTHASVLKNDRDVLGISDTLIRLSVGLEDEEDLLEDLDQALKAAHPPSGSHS
Procedure: 2.2 Cell culture and treatments: Human umbilical vein endothelial cells (HUVECs) were purchased from Lifeline Cell Technology (Cat. No. FC-0044) and cultured in VascuLife® Basal Medium (Cat. No. LM-0002) supplemented with the appropriate LifeFactors® Kit (No. LL-0003). All cells were grown in tissue culture flasks at 37° C. and 5% CO2. HUVECs from passages 2-4 were used in the experiments.
(§3) 2.9 Cystathionine γ-lyase (CSE) activity measurement: CSE activity was measured as previously reported. Plasma or tissue lysates were incubated with 2 mM cystathionine, 0.25 mM pyridoxal 5′-phosphate in 100 mM Tris-HCl buffer (pH 8.3) for 60 min at 37° C. 10% Trichloroacetic acid was added into reaction mixture. After centrifugation, the supernatant was mixed with 1% ninhydrin reagent and incubated for 5 min in a boiling-water bath. After heating, the solution was cooled on ice for 2 minutes and color reaction development measured 20 minutes at 455 nm using a spectrophotometer (Biotek). CSE activity was assessed by cystathionine consumption and enzyme activity expressed as fold change calculated from nanomoles of cystathionine consumed per mg of total protein per hour of incubation.

[8] = Sulfide release with Sugammadex in WT and CSE knockout mice; type: in vivo, mouse; details: single injection 0.2 mg/kg
Procedure: . Free sulfide was measured using 50 μl of plasma with MBB; whereas for detection of ALS and BSS, 50 μl of plasma was added separately into two sets of 4 mL BD vacutainer tubes. […]. Following a 30-min incubation on a nutator, the reaction liquid was removed, and the evolved sulfide gas subsequently trapped by adding 500 μl of 100 mM Tris-HCl buffer (pH 9.5, 0.1 mM DTPA) into the BD vacutainer tube and incubated again for 30 min on a nutator mixer. […]. Determination of ALS was made by reacting plasma samples with acidic phosphate buffer alone and subsequent trapping of evolved sulfide. Measurement of BSS was determined by subtracting the acid labile value from the total sulfide protocol containing TCEP reductant treatment under acidic conditions. […].
In clinical practice, sugammadex is administered at a dose of 4 mg/kg to up to 16 mg/kg for its current use. In the inventors' mice studies, the inventors used a single injection of 0.2 mg/kg for pharmacokinetic studies, which was a 20 to 80 times lower than the clinical usage of sugammadex.

[9] = Sulfide release with Sugammadex in human plasma; details: human blood
Procedure: as §2

CSE [10] = target: T1, CSE; assay: CSE activity with Sugammadex in human plasma; set-up: from tissue; host or cells: human blood plasma (lithium heparin)
Procedure: as §3

[11] = 4-week binge and crash methamphetamine
[12] = 4-week binge and crash methamphetamine vs controls
[13] = skeletal muscle, methamphetamine treated mice
[14] = skeletal muscle, methamphetamine treatment

## CN[C@@H](C)Cc1ccccc1 [methamphetamine, Methamphetamine hydrochloride]
H2S [1]; [11]
  reduction in plasma total sulfide: 3 fold
H2S [1]; [12]
  plasma acid-labile sulfide: significant reduction
  plasma bound sulfane sulfur: significant reduction
NO [2]; [11]
  plasma S-nitrosothiol (bound pool): decreased
  plasma free nitrite: decreased
  plasma total NO levels: two-fold reduction
NO [2]; methamphetamine treated mice vs saline
  skeletal muscle total NO: significantly reduced
Skeletal muscle tissue; methamphetamine treated mice
  eNOS expression: no change
Skeletal muscle tissue; [13]
  CBS gene expression: no significant changes
  CSE gene expression: significantly decreased
Skeletal muscle tissue; [14]
  ICAM-1 expression: concomitant increase
  VCAM-1 expression: concomitant increase
Skeletal muscle tissue; skeletal muscles, methamphetamine treatment
  NOx4 expression: marginal increase
[3]
  CSE protein expression: decreased expressions
  p-eNOS protein expression: decreased expressions
  total eNOS protein: no change
superoxide
  DHE fluorescence (oxidative stress): significant increase
CSE [4]
  CSE activity: significant decrease
H2S [5]
  acid-labile sulfide levels: decrease
NO [6]
  total NO levels: trend of decreasing
Femoral artery
  flow mediated vasodilation responses: significantly blunted
  mean blood flow velocity recovery after occlusion removal: significantly blunts
CSE [7]
  CSE enzyme activity: substantially decreased

## O=C([O-])CCSC[C@@H]1OC2O[C@@H]3[C@@H](O)[C@H](O)C(O[C@@H]4[C@@H](O)[C@H](O)C(O[C@@H]5[C@@H](O)[C@H](O)C(O[C@@H]6[C@@H](O)[C@H](O)C(O[C@@H]7[C@@H](O)[C@H](O)C(O[C@@H]8[C@@H](O)[C@H](O)C(O[C@@H]9[C@@H](O)[C@H](O)C(O[C@@H]1[C@@H](O)[C@@H]2O)O[C@H]9CSCCC(=O)[O-])O[C@H]8CSCCC(=O)[O-])O[C@H]7CSCCC(=O)O)O[C@H]6CSCCC(=O)O)O[C@H]5CSCCC(=O)O)O[C@H]4CSCCC(=O)[O-])O[C@H]3CSCCC(=O)[O-].[Na+].[Na+].[Na+].[Na+].[Na+] [Sugammadex]
[8]; CSE knockout mice
  plasma sulfide levels: increases
[8]; wild type mice
  plasma sulfide levels: increases
[9]
  bound sulfane sulfur: increases
  total sulfide levels: increases
CSE [10]
  plasma CSE activity: increased
